Experimental data from ChEMBL document CHEMBL5338754, “Identification of Binding Sites in the Nucleotide-Binding Domain of P-Glycoprotein for a Potent and Nontoxic Modulator, the Amine-Containing Monomeric Flavonoid FM04” (J Med Chem, 2023).

Key:
[1] = biological target: T1, ATP-dependent translocase ABCB1 (Homo sapiens, UniProt P08183); experiment: Negative allosteric modulator activity at human wildtype P-gp expressed in HEK293FT cells assessed as reversal of P-gp mediated PTX resistance by measuring sensitivity fold change incubated for 5 days by MTS assay; format: cell-based; conditions: 120 h, time 5 day
T1 sequence (P08183 whole entry): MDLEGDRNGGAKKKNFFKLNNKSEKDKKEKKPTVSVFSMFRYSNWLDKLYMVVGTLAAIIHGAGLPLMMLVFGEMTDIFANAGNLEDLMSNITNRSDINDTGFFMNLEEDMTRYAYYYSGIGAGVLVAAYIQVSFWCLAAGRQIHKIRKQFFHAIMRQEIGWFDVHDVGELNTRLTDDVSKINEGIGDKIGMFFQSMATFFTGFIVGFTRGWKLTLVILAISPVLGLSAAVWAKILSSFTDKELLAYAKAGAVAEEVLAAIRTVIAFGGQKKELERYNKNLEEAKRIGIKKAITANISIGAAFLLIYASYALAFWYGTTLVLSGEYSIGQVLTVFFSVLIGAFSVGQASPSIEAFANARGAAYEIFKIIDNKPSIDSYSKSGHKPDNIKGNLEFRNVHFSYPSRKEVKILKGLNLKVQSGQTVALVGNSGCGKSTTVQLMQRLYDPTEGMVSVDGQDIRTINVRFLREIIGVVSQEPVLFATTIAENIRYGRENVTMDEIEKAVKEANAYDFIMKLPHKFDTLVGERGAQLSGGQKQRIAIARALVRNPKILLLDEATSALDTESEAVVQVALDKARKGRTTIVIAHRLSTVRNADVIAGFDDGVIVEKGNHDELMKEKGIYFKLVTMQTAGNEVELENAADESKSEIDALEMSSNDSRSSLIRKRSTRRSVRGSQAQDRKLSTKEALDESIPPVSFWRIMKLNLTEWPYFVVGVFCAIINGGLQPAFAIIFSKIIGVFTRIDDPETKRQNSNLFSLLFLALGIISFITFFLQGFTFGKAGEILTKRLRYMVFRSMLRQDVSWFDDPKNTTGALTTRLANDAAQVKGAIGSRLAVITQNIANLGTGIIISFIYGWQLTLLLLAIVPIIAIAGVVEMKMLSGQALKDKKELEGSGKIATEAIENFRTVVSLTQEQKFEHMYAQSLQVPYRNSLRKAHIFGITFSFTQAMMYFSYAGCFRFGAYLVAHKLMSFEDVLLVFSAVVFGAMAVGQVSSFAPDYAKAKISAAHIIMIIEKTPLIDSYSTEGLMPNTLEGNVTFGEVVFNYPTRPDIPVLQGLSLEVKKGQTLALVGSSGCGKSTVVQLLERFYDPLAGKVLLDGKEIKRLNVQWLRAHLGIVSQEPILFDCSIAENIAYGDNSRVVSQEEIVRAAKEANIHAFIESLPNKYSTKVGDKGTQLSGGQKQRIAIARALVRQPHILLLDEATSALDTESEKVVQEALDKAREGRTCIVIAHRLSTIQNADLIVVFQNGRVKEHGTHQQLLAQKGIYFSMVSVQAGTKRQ

[2] = biological target: T2, ATP-dependent translocase ABCB1 (Homo sapiens, UniProt P08183, C1227A); experiment: Negative allosteric modulator activity at human P-gp C1227A mutant expressed in HEK293FT cells assessed as reversal of P-gp mediated PTX resistance by measuring sensitivity fold change incubated for 5 days by MTS assay; format: cell-based; conditions: 120 h, time 5 day
T2 sequence (P08183 whole entry C1227A): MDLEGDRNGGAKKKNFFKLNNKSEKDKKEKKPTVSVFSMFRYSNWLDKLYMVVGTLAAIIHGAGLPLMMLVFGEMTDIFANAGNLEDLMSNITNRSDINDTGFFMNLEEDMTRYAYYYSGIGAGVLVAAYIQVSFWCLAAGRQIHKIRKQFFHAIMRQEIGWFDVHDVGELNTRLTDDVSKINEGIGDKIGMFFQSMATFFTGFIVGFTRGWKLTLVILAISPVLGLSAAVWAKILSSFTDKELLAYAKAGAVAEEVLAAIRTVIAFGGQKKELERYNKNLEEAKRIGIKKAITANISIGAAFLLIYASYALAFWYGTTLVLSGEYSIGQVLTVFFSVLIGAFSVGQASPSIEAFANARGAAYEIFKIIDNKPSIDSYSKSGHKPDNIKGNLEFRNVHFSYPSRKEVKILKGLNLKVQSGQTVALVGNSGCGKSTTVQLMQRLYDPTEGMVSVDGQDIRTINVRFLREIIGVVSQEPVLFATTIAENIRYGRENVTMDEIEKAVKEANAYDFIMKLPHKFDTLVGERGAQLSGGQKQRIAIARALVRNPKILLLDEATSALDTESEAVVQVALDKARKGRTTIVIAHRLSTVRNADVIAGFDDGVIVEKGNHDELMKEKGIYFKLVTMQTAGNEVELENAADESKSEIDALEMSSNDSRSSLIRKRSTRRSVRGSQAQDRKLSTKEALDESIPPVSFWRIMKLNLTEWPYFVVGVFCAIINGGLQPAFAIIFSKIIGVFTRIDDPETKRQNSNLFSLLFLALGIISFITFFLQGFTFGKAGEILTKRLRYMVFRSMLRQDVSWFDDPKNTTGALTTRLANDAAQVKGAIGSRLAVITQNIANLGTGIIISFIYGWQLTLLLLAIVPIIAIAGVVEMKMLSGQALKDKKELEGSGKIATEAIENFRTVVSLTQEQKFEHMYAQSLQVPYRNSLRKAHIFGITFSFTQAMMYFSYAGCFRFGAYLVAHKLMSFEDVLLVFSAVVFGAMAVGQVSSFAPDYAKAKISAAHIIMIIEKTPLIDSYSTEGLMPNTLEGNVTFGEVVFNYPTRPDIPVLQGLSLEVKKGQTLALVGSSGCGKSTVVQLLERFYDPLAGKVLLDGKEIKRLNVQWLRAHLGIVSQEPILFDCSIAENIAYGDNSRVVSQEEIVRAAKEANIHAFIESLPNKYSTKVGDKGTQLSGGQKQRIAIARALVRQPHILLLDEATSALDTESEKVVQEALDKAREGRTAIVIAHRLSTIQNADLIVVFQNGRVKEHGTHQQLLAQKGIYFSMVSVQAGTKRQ

[3] = biological target: T3, ATP-dependent translocase ABCB1 (Homo sapiens, UniProt P08183, Q1193N); experiment: Negative allosteric modulator activity at human P-gp Q1193N mutant expressed in HEK293FT cells assessed as reversal of P-gp mediated PTX resistance by measuring sensitivity fold change incubated for 5 days by MTS assay; format: cell-based; conditions: 120 h, time 5 day
T3 sequence (P08183 whole entry Q1193N): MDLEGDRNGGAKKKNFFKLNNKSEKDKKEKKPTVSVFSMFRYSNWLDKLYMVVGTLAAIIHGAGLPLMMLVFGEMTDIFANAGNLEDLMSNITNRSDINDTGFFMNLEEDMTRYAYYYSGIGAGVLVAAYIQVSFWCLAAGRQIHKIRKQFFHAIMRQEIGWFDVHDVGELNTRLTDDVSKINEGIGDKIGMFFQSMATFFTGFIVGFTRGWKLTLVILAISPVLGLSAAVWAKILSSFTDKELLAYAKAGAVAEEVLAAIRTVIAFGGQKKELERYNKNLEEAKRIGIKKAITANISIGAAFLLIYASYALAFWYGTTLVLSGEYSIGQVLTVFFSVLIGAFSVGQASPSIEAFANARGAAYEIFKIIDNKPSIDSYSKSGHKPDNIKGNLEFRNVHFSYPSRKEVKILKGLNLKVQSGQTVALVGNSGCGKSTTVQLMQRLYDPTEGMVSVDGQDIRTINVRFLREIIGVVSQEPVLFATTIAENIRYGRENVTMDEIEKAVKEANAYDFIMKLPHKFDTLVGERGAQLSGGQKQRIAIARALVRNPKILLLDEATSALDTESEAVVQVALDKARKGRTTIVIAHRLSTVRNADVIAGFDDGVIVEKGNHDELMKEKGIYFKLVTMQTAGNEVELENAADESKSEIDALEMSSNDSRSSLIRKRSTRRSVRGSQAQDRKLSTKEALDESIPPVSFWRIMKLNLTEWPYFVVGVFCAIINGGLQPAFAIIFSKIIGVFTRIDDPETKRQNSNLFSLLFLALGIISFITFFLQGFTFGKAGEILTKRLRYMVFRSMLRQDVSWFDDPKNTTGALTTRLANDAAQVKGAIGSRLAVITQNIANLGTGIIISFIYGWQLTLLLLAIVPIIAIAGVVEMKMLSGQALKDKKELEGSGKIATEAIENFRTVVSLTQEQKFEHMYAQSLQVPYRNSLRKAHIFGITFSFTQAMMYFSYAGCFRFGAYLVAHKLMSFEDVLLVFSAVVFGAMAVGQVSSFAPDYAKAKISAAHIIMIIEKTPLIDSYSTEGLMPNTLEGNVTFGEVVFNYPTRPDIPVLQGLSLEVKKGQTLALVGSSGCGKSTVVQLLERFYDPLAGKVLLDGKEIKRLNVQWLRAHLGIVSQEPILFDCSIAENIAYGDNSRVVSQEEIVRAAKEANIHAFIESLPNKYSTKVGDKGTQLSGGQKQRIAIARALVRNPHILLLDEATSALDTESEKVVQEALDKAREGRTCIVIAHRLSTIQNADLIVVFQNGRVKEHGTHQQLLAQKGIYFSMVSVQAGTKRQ

[4] = biological target: ATP-dependent translocase ABCB1 (Homo sapiens, UniProt P08183, T1226W); experiment: Negative allosteric modulator activity at human P-gp T1226W mutant expressed in HEK293FT cells assessed as reversal of P-gp mediated PTX resistance by measuring sensitivity fold change incubated for 5 days by MTS assay; format: cell-based; conditions: 120 h, time 5 day
[5] = biological target: ATP-dependent translocase ABCB1 (Homo sapiens, UniProt P08183, Q1193T); experiment: Negative allosteric modulator activity at human P-gp Q1193T mutant expressed in HEK293FT cells assessed as increase in intracellular doxorubicin accumulation using doxorubicin as substrate at 1 uM incubated for 150 mins by microplate reader assay (reference value: 65.5 +/- 0.9 %); format: cell-based; conditions: 2.5 h
[6] = biological target: T3, ATP-dependent translocase ABCB1; experiment: Negative allosteric modulator activity at human P-gp Q1193N mutant expressed in HEK293FT cells assessed as increase in intracellular doxorubicin accumulation using doxorubicin as substrate at 1 uM incubated for 150 mins by microplate reader assay (reference value: 59.7 +/- 2.1 %); format: cell-based; conditions: 2.5 h
[7] = biological target: ATP-dependent translocase ABCB1 (Homo sapiens, UniProt P08183, I1115W); experiment: Negative allosteric modulator activity at human P-gp I1115W mutant expressed in HEK293FT cells assessed as increase in intracellular doxorubicin accumulation using doxorubicin as substrate at 1 uM incubated for 150 mins by microplate reader assay (reference value: 98.4 +/- 1.3 %); format: cell-based; conditions: 2.5 h
[8] = biological target: ATP-dependent translocase ABCB1 (Homo sapiens, UniProt P08183, I1115L); experiment: Negative allosteric modulator activity at human P-gp I1115L mutant expressed in HEK293FT cells assessed as increase in intracellular doxorubicin accumulation using doxorubicin as substrate at 1 uM incubated for 150 mins by microplate reader assay (reference value: 58.9 +/- 2.2 %); format: cell-based; conditions: 2.5 h
[9] = biological target: ATP-dependent translocase ABCB1 (Homo sapiens, UniProt P08183, T1226F); experiment: Negative allosteric modulator activity at human P-gp T1226F mutant expressed in HEK293FT cells assessed as increase in intracellular doxorubicin accumulation using doxorubicin as substrate at 1 uM incubated for 150 mins by microplate reader assay (reference value: 67.6 +/- 1.9 %); format: cell-based; conditions: 2.5 h
[10] = biological target: ATP-dependent translocase ABCB1 (Homo sapiens, UniProt P08183, G1114A); experiment: Negative allosteric modulator activity at human P-gp G1114A mutant expressed in HEK293FT cells assessed as fold change in intracellular doxorubicin accumulation using doxorubicin as substrate at 1 uM incubated for 150 mins by microplate reader assay relative to DMSO; format: cell-based; conditions: 2.5 h
[11] = biological target: T2, ATP-dependent translocase ABCB1; experiment: Negative allosteric modulator activity at human P-gp C1227A mutant expressed in HEK293FT cells assessed as fold change in intracellular doxorubicin accumulation using doxorubicin as substrate at 1 uM incubated for 150 mins by microplate reader assay relative to DMSO; format: cell-based; conditions: 2.5 h
[12] = biological target: T4, ATP-dependent translocase ABCB1 (Homo sapiens, UniProt P08183, Q1193F); experiment: Negative allosteric modulator activity at human P-gp Q1193F mutant expressed in HEK293FT cells assessed as fold change in intracellular doxorubicin accumulation using doxorubicin as substrate at 1 uM incubated for 150 mins by microplate reader assay relative to DMSO; format: cell-based; conditions: 2.5 h
T4 sequence (P08183 whole entry Q1193F): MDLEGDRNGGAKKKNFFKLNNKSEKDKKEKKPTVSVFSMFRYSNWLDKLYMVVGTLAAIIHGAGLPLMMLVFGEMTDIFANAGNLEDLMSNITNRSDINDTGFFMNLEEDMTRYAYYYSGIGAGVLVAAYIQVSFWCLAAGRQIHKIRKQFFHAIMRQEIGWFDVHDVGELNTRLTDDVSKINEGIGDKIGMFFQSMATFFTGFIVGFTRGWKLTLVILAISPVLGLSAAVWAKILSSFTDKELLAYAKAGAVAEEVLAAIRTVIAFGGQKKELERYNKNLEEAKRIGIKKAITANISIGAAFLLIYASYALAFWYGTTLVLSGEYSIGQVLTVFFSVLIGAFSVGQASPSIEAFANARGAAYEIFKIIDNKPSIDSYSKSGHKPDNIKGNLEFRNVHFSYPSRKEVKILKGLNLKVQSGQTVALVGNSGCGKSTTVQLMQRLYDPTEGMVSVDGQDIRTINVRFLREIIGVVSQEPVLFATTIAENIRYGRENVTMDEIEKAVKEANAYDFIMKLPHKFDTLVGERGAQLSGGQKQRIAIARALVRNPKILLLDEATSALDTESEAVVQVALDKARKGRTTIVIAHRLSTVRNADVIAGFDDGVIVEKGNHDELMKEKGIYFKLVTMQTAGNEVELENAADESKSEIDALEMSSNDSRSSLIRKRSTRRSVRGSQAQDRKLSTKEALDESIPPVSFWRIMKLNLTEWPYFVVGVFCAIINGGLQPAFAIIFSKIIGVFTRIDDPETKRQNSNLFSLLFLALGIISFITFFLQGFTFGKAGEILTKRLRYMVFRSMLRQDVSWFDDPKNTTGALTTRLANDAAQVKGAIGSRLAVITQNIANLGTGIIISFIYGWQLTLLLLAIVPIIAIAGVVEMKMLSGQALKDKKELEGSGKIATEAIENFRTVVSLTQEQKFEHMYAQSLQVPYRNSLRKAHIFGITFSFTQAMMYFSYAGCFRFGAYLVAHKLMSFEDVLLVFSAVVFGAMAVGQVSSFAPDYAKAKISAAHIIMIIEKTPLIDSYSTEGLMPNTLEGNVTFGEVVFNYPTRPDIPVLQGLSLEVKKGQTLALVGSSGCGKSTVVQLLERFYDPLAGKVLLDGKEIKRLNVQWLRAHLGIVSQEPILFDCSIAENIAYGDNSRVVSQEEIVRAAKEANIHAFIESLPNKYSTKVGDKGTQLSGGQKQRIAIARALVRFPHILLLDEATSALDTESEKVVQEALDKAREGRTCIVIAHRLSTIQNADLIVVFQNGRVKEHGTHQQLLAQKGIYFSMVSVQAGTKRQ

[13] = biological target: ATP-dependent translocase ABCB1 (Homo sapiens, UniProt P08183, Q1193E); experiment: Negative allosteric modulator activity at human P-gp Q1193E mutant expressed in HEK293FT cells assessed as fold change in intracellular doxorubicin accumulation using doxorubicin as substrate at 1 uM incubated for 150 mins by microplate reader assay relative to DMSO; format: cell-based; conditions: 2.5 h
[14] = biological target: T3, ATP-dependent translocase ABCB1; experiment: Negative allosteric modulator activity at human P-gp Q1193N mutant expressed in HEK293FT cells assessed as fold change in intracellular doxorubicin accumulation using doxorubicin as substrate at 1 uM incubated for 150 mins by microplate reader assay relative to DMSO; format: cell-based; conditions: 2.5 h
[15] = biological target: ATP-dependent translocase ABCB1 (Homo sapiens, UniProt P08183, G1114I); experiment: Negative allosteric modulator activity at human P-gp G1114I mutant expressed in HEK293FT cells assessed as fold change in intracellular doxorubicin accumulation using doxorubicin as substrate at 1 uM incubated for 150 mins by microplate reader assay relative to DMSO; format: cell-based; conditions: 2.5 h
[16] = biological target: ATP-dependent translocase ABCB1 (Homo sapiens, UniProt P08183, G1114L); experiment: Negative allosteric modulator activity at human P-gp G1114L mutant expressed in HEK293FT cells assessed as fold change in intracellular doxorubicin accumulation using doxorubicin as substrate at 1 uM incubated for 150 mins by microplate reader assay relative to DMSO; format: cell-based; conditions: 2.5 h
[17] = biological target: ATP-dependent translocase ABCB1 (Homo sapiens, UniProt P08183, I1115F); experiment: Negative allosteric modulator activity at human P-gp I1115F mutant expressed in HEK293FT cells assessed as fold change in intracellular doxorubicin accumulation using doxorubicin as substrate at 1 uM incubated for 150 mins by microplate reader assay relative to DMSO; format: cell-based; conditions: 2.5 h
[18] = biological target: ATP-dependent translocase ABCB1 (Homo sapiens, UniProt P08183, T1226Y); experiment: Negative allosteric modulator activity at human P-gp T1226Y mutant expressed in HEK293FT cells assessed as fold change in intracellular doxorubicin accumulation using doxorubicin as substrate at 1 uM incubated for 150 mins by microplate reader assay relative to DMSO; format: cell-based; conditions: 2.5 h
[19] = biological target: ATP-dependent translocase ABCB1 (Homo sapiens, UniProt P08183, Q1193A); experiment: Activation of P-gp ATPase activity in human P-gp Q1193A mutant expressed in HEK293FT cell microsomes at 20 uM incubated for 1 hr in presence of ATP by Glo-luminescence based microplate reader assay (reference value: 0.38 +/- 0.04 pmol/min/microg); set-up: species or system Microsome
[20] = biological target: T4, ATP-dependent translocase ABCB1; experiment: Activation of P-gp ATPase activity in human P-gp Q1193F mutant expressed in HEK293FT cell microsomes at 20 uM incubated for 1 hr in presence of ATP by Glo-luminescence based microplate reader assay (reference value: 0.41 +/- 0.06 pmol/min/microg); set-up: species or system Microsome
[21] = biological target: T1, ATP-dependent translocase ABCB1; experiment: Activation of P-gp ATPase activity in wildtype human P-gp expressed in HEK293FT cell microsomes at 20 uM incubated for 1 hr in presence of ATP by Glo-luminescence based microplate reader assay (reference value: 0.32 +/- 0.02 pmol/min/microg); set-up: species or system Microsome

O=c1cc(-c2ccc(OCCOCCNCc3ccccc3)cc2)oc2ccccc12
fold change (FC) [1]: 73
fold change (FC) [2]: 67.7
fold change (FC) [3]: 51.4
fold change (FC) [4]: 56.8
Activity [5]: 85.4%
Activity [6]: 91.9%
Activity [7]: 99%
Activity [8]: 97.2%
Activity [9]: 100.3%
fold change (FC) [10]: 1
fold change (FC) [11]: 1.3
fold change (FC) [12]: 1.2
fold change (FC) [13]: 1.1
fold change (FC) [14]: 1.5
fold change (FC) [15]: 1
fold change (FC) [16]: 1
fold change (FC) [17]: 1.3
fold change (FC) [18]: 1.5
Activity [19]: 0.42 pmol/min/µg
Activity [20]: 0.45 pmol/min/µg
Activity [21]: 0.52 pmol/min/µg
